The values below come from ChEMBL document CHEMBL6127027, “Conserved gatekeeper methionine regulates the binding and access of kinase inhibitors to ATP sites of MAP2K1, 4, and 7: Clues for developing selective inhibitors” (Bioorg Med Chem Lett, 2024).

The target in assay [1] is Dual specificity mitogen-activated protein kinase kinase 1 (Homo sapiens, UniProt Q02750). The experiment in a line: Inhibition of MAP2K1 (unknown origin).
For assay [2], the target named is T1, Dual specificity mitogen-activated protein kinase kinase 4 (Homo sapiens) (UniProt P45985).
T1 sequence (whole entry): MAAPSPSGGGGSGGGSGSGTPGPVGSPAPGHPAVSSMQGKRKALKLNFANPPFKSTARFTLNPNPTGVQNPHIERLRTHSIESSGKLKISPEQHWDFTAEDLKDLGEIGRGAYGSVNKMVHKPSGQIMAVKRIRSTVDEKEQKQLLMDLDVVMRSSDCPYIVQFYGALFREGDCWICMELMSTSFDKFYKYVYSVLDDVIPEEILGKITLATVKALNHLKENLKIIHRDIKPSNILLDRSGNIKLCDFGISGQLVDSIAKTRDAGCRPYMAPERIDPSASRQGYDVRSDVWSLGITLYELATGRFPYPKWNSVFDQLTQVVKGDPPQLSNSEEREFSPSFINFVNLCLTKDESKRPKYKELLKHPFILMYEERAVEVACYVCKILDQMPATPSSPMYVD
The experiment in a line: Inhibition of MAP2K4 (unknown origin) at 100 uM.

Assay [3] deals with T2, Dual specificity mitogen-activated protein kinase kinase 7 (Homo sapiens) (UniProt O14733).
T2 sequence (whole entry): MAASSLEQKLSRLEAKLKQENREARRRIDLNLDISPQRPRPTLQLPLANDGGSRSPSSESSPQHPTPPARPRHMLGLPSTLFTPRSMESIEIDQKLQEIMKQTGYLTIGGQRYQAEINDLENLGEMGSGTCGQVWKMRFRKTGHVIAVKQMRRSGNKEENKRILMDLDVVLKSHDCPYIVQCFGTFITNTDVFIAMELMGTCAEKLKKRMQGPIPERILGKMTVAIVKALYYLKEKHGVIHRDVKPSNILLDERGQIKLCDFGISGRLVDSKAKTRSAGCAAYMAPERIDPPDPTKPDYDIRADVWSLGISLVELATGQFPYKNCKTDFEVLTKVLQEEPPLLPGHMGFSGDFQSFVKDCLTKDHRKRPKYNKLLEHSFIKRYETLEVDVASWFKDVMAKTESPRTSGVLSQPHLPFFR
Kind of assay: Inhibition of MAP2K7 (unknown origin) at 100 uM relative to control.

The target of assay [4] is T3, Dual specificity mitogen-activated protein kinase kinase 4 (Homo sapiens, UniProt P45985).
T3 sequence (P45985 whole entry): T1 sequence (whole entry)
The experiment in a line: Inhibition of MAP2K4 (unknown origin).

Each structure is given as a SMILES string. The source made the active and inactive calls. The rule behind the calls is not given here.

Dual specificity mitogen-activated protein kinase kinase 1, sequence (Q02750 whole entry): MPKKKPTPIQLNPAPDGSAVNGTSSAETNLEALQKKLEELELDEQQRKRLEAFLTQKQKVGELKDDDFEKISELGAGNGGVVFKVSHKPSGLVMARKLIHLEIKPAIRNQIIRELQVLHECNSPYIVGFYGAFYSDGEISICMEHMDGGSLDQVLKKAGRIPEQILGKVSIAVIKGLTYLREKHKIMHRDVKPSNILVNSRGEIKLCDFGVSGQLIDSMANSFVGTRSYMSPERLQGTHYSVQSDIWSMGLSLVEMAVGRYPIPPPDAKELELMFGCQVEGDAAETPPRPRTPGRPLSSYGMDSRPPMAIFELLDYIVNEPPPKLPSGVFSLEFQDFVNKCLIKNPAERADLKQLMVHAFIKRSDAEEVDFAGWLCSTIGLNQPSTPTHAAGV

`COc1cc(O)c2c(c1)/C=C/C[C@H](O)[C@H](O)C(=O)CCC[C@H](C)OC2=O`: 5.2 µM corresponded to half-maximal inhibition in assay [1] (IC50). The inhibition entry in assay [2] is “inactive”. Moreover, the inhibition in assay [3] turned out to be 25%.

`COc1cc(O)c2c(c1)/C=C/C[C@H](O)[C@H](O)C(=O)/C=C\C[C@H](C)OC2=O` yielded an IC50 in assay [4] of 4.7 µM.

By IC50 is commonly meant the point on the concentration scale where inhibition reaches its midpoint. By inhibition is commonly meant how much of the control response was suppressed.
